Measurements taken from publication PMC11013662, “New Thiosemicarbazide Derivatives with Multidirectional Biological Action” (Molecules, 2024).
In brackets after ≈: the same amount, converted by molar mass.

Columns and labels:
[1] = system: S. aureus reference strains; assay: Broth microdilution MIC / MBC, summary over S. aureus strains; assay type: cell-based, Staphylococcus aureus
Method: (§1) The microdilution method was used to determine the MIC values of newly synthesized compounds. The antimicrobial activity of the thiosemicarbazides series was tested on ten reference bacterial strains purchased from the American Type Culture Collection (ATCC). Seven Gram-positive reference strains (S. aureus ATCC 29213, S. aureus ATCC 43300, S. aureus ATCC 6538, S. aureus ATCC 25923, S. epidermidis ATCC 12228, M. luteus ATCC 10240, and B. cereus ATCC 10876) and three Gram-negative reference bacteria (K. pneumoniae ATCC 13883, E. coli ATCC 25922, S. typhimurium ATCC 14028) were used. […]
(§2) A 96-well microtiter plate and microbroth two-fold dilution method was used to determine the minimum inhibitory concentration (MIC) according to the EUCAST (European Committee on Antimicrobial Susceptibility Testing) reference recommendation. […] After incubation, the growth of bacteria was monitored by a Biotek ELx800 (Biokom, Janki, Poland) spectrophotometer at 600 nm (OD600). […]
(§3) The in vitro antimicrobial activity of the tested compounds was determined by the MIC, which was defined as the lowest concentration of the compound tested at which no visible growth of the test bacteria was observed. […] MBC was determined after the broth dilution period of an MIC test has been completed. […] The MBC values were determined by observing the first clear area on the agar plate that has no observable bacterial growth.

[2] = system: Staphylococcus spp. strains; assay: Broth microdilution MIC / MBC, staphylococci; assay type: cell-based
Method: as §1, §2, §3

Gram-positive bacteria = assay: Broth microdilution MIC / MBC, summary over Gram-positive strains; assay type: cell-based
Method: as §1, §2, §3

MBC/MIC ratio ([2]; against staphylococci, bacteriostatic)	MIC ([2]; all Staphylococcus spp. strains except MRSA ATCC 43300)	MIC range (Gram-positive bacteria)	MIC range ([1]; S. aureus ATCC 43300 MRSA and all MSSA reference strains)	Structure (SMILES)	MBC ([1]; Staphylococcus aureus, all tested S. aureus reference strains)	MBC (Gram-positive bacteria)
> 4	1.95 µg/mL (≈ 5.22 µM)			O=C(NNC(=S)Nc1cccc(Cl)c1)c1cccc(C(F)(F)F)c1 [Compound 3a, 4-(3-Chlorophenyl)-1-(3-trifluoromethylbenzoyl)thiosemicarbazide]	1000 µg/mL (≈ 2680 µM)	
		7.8 to 31.25 µg/mL	15.63 to 31.25 µg/mL	O=C(NNC(=S)Nc1cccc(F)c1)c1cccc(C(F)(F)F)c1 [Compound 3e, 1-(3-Trifluoromethylbenzoyl)-4-(3-fluorophenyl)thiosemicarbazide]		> 1000 µg/mL
